Reference: US12459951B2, “Compounds that interact with RAS superfamily proteins for treatment of cancers, inflammatory diseases, rasopathies, and fibrotic disease” (SHY Therapeutics, LLC, priority 2022, dated 2025)
pIC50: −log10 of the molar value. Read-outs that look alike come from different tables or passages of the source.

How the values were obtained:
Akt phosphorylation = experiment: Akt Phosphorylation Assay (western blot), Panc-1; format: cell-based, human; details: at 10 μM, * = activation
How it was run: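 Phospho-Akt (Ser473) was measured by western blot in lysates of KRas G12D Panc-1 cells exposed to test compound for 6 h at 37 °C, either at 10 μM final with 0.3% DMSO or as serial dilutions for IC50. One format used overnight 0.5% FBS starvation followed by a 15 min pulse of 1.5 ng/ml EGF. The other used cells in 10% FBS with no stimulation.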

[1] = tested on: MiaPaca-2 (expressing KRAS G12C mutant); experiment: Proliferation Assay (Cell Viability Assay); format: cell-based; details: Homo sapiens, MIA PaCa-2; for pIC50: read-out: Proliferation in MiaPaca-2: IC50
How it was run: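 After 2–4 days' exposure at 37 °C, 5% CO2 to a single 10 μM final concentration or a dilution series (IC50), percent proliferation inhibition was derived from CellTiter 96 Aqueous One viability readings. The medium contained 0.3% DMSO and 10% FBS. KRAS G12C MiaPaca-2 cells were plated at 2000–5000/well the day before.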

SMILES	% inh of Akt phosphorylation in Panc-1 (Akt phosphorylation)	pIC50 [1]	IC50 ([1]; Proliferation assay, MiaPaca-2, read-out: MiaPaca-2 IC50 (nM) Pancreatic)
Cc1c(-c2ccn(C)n2)cn2nc(-c3nccn3C)nc(Nc3cc(OC(F)(F)F)ccn3)c12 [Compound 127, 5-Methyl-2-(1-methyl-1H-imidazol-2-yl)-6-(1-methyl-1H-pyrazol-3-yl)-N-(4-(trifluoromethoxy)pyridin-2-yl)pyrrolo[2,1-f][1,2,4]triazin-4-amine]	D* (85-100% activation)	> 6.82	–
COCCO[C@H]1C[C@H](Nc2nc(-c3nccn3C)nn3cc(-c4ccnc(OC)c4)c(C)c23)C1 [Compound 161, N-((1r,3r)-3-(2-Methoxy-ethoxy)cyclo-butyl)-6-(2-methoxy-pyridin-4-yl)-5-methyl-2-(1-methyl-1H-imidazol-2-yl)pyrrolo[2,1-f][1,2,4]triazin-4-amine]	A* (1-25% activation)	< 6.00	–
COc1cncnc1Nc1nc(-c2nccn2C)nn2cc(-c3ccn(C)n3)c(C)c12 [Compound 107, N-(5-Methoxypyrimidin-4-yl)-5-methyl-2-(1-methyl-1H-imidazol-2-yl)-6-(1-methyl-1H-pyrazol-3-yl)pyrrolo[2,1-f][1,2,4]triazin-4-amine]	C* (46-84% activation)	> 6.82	–
COc1cc(-c2cn3nc(-c4nccn4C)nc(N[C@@H]4CC[C@H](OC)C4)c3c2C)ccn1 (racemic) [Compound 164, rac N-((1R,3S)-3-Methoxycyclopentyl)-6-(2-methoxypyridin-4-yl)-5-methyl-2-(1-methyl-1H-imidazol-2-yl)pyrrolo[2,1-f][1,2,4]triazin-4-amine]	A* (1-25% activation)	< 6.00	–
COCCOc1cc(Nc2nc(-c3nccn3C)nn3cc(-c4ccn(C(C)C)n4)c(C)c23)ncn1 [Compound 122, 6-(1-Isopropyl-1H-pyrazol-3-yl)-N-(6-(2-methoxyethoxy)pyrimidin-4-yl)-5-methyl-2-(1-methyl-1H-imidazol-2-yl)pyrrolo[2,1-f][1,2,4]triazin-4-amine]	C* (46-84% activation)	> 6.82	–
Cc1c(-c2ccn(C)n2)cn2nc(-c3nccn3C)nc(Nc3nnco3)c12.Cl [Compound 119, N-(5-Methyl-2-(1-methyl-1H-imidazol-2-yl)-6-(1-methyl-1H-pyrazol-3-yl)pyrrolo[2,1-f][1,2,4]triazin-4-yl)-1,3,4-oxadiazol-2-amine hydrochloride salt]	D* (85-100% activation)	6.00 to 6.29	–
COc1cc(-c2cn3nc(-c4nccn4C)nc(N[C@H]4C[C@H](OC)C4)c3c2C)ccn1 [Compound 160, N-((1r,3r)-3-Methoxycyclobutyl)-6-(2-methoxypyridin-4-yl)-5-methyl-2-(1-methyl-1H-imidazol-2-yl)pyrrolo[2,1-f][1,2,4]triazin-4-amine]	B* (26-49% activation)	< 6.00	–
Cc1c(-c2ccn(C)n2)cn2nc(-c3nccn3C)nc(Nc3cc(OCCO)ncn3)c12 [Compound 101, 2-((6-((5-Methyl-2-(1-methyl-1H-imidazol-2-yl)-6-(1-methyl-1H-pyrazol-3-yl)pyrrolo[2,1-f][1,2,4]triazin-4-yl)amino)pyrimidin-4-yl)oxy) ethan-1-ol]	D* (85-100% activation)	6.30 to 6.82	–
CO[C@H]1C[C@@H](Nc2nc(-c3nccn3C)nn3cc(-c4ccn(C)n4)c(C)c23)C1 [Compound 131, N-((1s,3s)-3-Methoxycyclobutyl)-5-methyl-2-(1-methyl-1H-imidazol-2-yl)-6-(1-methyl-1H-pyrazol-3-yl)pyrrolo[2,1-f][1,2,4]triazin-4-amine]	A (1-25% inhibition)	< 6.00	–
Cc1ccnc(Nc2nc(-c3nccn3C)nn3cc(-c4ccn(C5CC5)n4)c(C)c23)c1 [Compound 144, 6-(1-Cyclopropyl-1H-pyrazol-3-yl)-5-methyl-2-(1-methyl-1H-imidazol-2-yl)-N-(4-methylpyridin-2-yl)pyrrolo[2,1-f][1,2,4]triazin-4-amine]	B* (26-49% activation)	> 6.82	–
COc1ccnc(Nc2nc(-c3nccn3C)nn3cc(-c4cccnc4)c(C)c23)n1 [Compound 158, N-(4-Methoxy-pyrimidin-2-yl)-5-methyl-2-(1-methyl-1H-imidazol-2-yl)-6-(pyridin-3-yl)pyrrolo[2,1-f][1,2,4]triazin-4-amine]	D* (85-100% activation)	> 6.82	–
Cc1c(-c2ccn(C)n2)cn2nc(-c3nccn3C)nc(Nc3cc4n(n3)CCO4)c12 [Compound 124, N-(5-Methyl-2-(1-methyl-1H-imidazol-2-yl)-6-(1-methyl-1H-pyrazol-3-yl)pyrrolo[2,1-f][1,2,4]triazin-4-yl)-2,3-dihydropyrazolo[5,1-b]oxazol-6-amine]	C* (46-84% activation)	> 6.82	1 to 10 nM
Cc1c(-c2ccn(C)n2)cn2nc(-c3nccn3C)nc(Nc3nccc(OCCN(C)C)n3)c12 [Compound 105, N-(4-(2-(Dimethylamino)ethoxy)pyrimidin-2-yl)-5-methyl-2-(1-methyl-1H-imidazol-2-yl)-6-(1-methyl-1H-pyrazol-3-yl)pyrrolo[2,1-f][1,2,4]triazin-4-amine]	C* (46-84% activation)	6.00 to 6.29	–
COc1ccnc(Nc2nc(-c3nccn3C)nn3cc(-c4ccn(C)n4)c(C)c23)n1.Cl [Compound 114, N-(4-Methoxypyrimidin-2-yl)-5-methyl-2-(1-methyl-1H-imidazol-2-yl)-6-(1-methyl-1H-pyrazol-3-yl)pyrrolo[2,1-f][1,2,4]triazin-4-amine hydrochloride salt]	D* (85-100% activation)	> 6.82	–
COc1ccnc(Nc2nc(-c3nccn3C)nn3cc(-c4ccn(C(F)F)n4)c(C)c23)n1 [Compound 95, 6-(1-(Difluoromethyl)-1H-pyrazol-3-yl)-N-(4-methoxypyrimidin-2-yl)-5-methyl-2-(1-methyl-1H-imidazol-2-yl)pyrrolo[2,1-f][1,2,4]triazin-4-amine]	D* (85-100% activation)	> 6.82	–
Cc1c(-c2ccn(C(C)C)n2)cn2nc(-c3nccn3C)nc(Nc3cc(OCCN(C)C)ncn3)c12 [Compound 123, N-(6-(2-(Dimethylamino)ethoxy)pyrimidin-4-yl)-6-(1-isopropyl-1H-pyrazol-3-yl)-5-methyl-2-(1-methyl-1H-imidazol-2-yl)pyrrolo[2,1-f][1,2,4]triazin-4-amine]	B* (26-49% activation)	> 6.82	–
COc1ccnc(Nc2nc(-c3nccn3C)nn3cc(-c4cccnc4)c(-c4cccnc4)c23)c1 [Compound 169, N-(4-methoxypyridin-2-yl)-2-(1-methyl-1H-imidazol-2-yl)-5,6-di(pyridin-3-yl)pyrrolo[2,1-f][1,2,4]triazin-4-amine]	C* (46-84% activation)	> 6.82	–
CO[C@H]1CC[C@@H](Nc2nc(-c3ccccn3)nn3cc(-c4ccn(C(C)C)n4)c(C)c23)C1 (racemic) [Compound 9, rac 6-(1-Isopropyl-1H-pyrazol-3-yl)-N-((1R,3S)-3-methoxycyclopentyl)-5-methyl-2-(pyridin-2-yl)pyrrolo[2,1-f][1,2,4]triazin-4-amine]	0 (0% inhibition)	< 6.00	–
CO[C@H]1C[C@@H](Nc2nc(-c3nccn3C)nn3cc(-c4cccnc4)c(C)c23)C1 [Compound 153, N-((1s,3s)-3-methoxy-cyclobutyl)-5-methyl-2-(1-methyl-1H-imidazol-2-yl)-6-(pyridin-3-yl)pyrrolo[2,1-f][1,2,4]triazin-4-amine]	B (26-49% inhibition)	< 6.00	–
CO[C@H]1C[C@H](Nc2nc(-c3nccn3C)nn3cc(-c4cccnc4)c(-c4ccccn4)c23)C1 [Compound 168, N-((1r,3r)-3-Methoxycyclobutyl)-2-(1-methyl-1H-imidazol-2-yl)-5-(pyridin-2-yl)-6-(pyridin-3-yl)pyrrolo[2,1-f][1,2,4]triazin-4-amine]	0 (0% inhibition)	< 6.00	–
COc1cc(Nc2nc(-c3nccn3C)nn3cc(-c4ccn(C5CC5)n4)c(C)c23)ncn1 [Compound 135, 6-(1-Cyclopropyl-1H-pyrazol-3-yl)-N-(6-methoxypyrimidin-4-yl)-5-methyl-2-(1-methyl-1H-imidazol-2-yl)pyrrolo[2,1-f][1,2,4]triazin-4-amine]	D* (85-100% activation)	> 6.82	–
CCOc1ccnc(Nc2nc(-c3nccn3C)nn3cc(-c4ccn(C5CC5)n4)c(C)c23)c1 [Compound 141, 6-(1-Cyclopropyl-1H-pyrazol-3-yl)-N-(4-ethoxypyridin-2-yl)-5-methyl-2-(1-methyl-1H-imidazol-2-yl)pyrrolo[2,1-f][1,2,4]triazin-4-amine]	A (1-25% inhibition)	> 6.82	–
COc1ccnc(Nc2nc(-c3nccn3C)nn3cc(-c4cccnc4)c(C)c23)c1 [Compound 157, N-(4-Methoxy-pyridin-2-yl)-5-methyl-2-(1-methyl-1H-imidazol-2-yl)-6-(pyridin-3-yl)pyrrolo[2,1-f][1,2,4]triazin-4-amine]	D* (85-100% activation)	> 6.82	–
